In patent US20060276460A1, “Use of piperazine phenothiazine derivatives in the manufacture of a medicament with neuroprotector and/or neurotrophic effects on cns and/or pns” (priority 2003, published 2006):

What was measured:
SOD mice = assay: Survival rate of SOD mice after oral administration; format: in vivo
Protocol: In vivo studies were conducted on transgenic animals with ALS causing mutations, a model for neurodegenerative diseases according to protocols described by Gurney Me, Pu H, Chiu Ay, Dal Canto Mc, Polchow Cy, Alexander Dd, Caliendo J, Hentati A, Kwon Yw, Deng Hx, et al. in Motor neuron degeneration in mice that express a human Cu,Zn superoxide dismutase mutation. Science (1994) 264:1772-1775; and by Mohajeri Mh, Figlewicz Da, Bohn Mc in Selective loss of alpha motoneurons innervating the medial gastrocnemius muscle in a model of amyotrophic lateral sclerosis. Exp. Neurol. (1998) 150:329-336.
Mice are used at 4 months of age i.e. about 2 weeks before the appearance of the first symptoms.
They are genotyped for SOD1 gene using PCR method.
Animals are assigned into four groups to receive a daily oral administration of 1)saline as control, 2) 0.1 mg/kg, 3) 1 mg/kg, 4) 10 mg/kg of flufenazine, until death by weakness and paralysis occurs.
Survival rate was recorded on a daily basis.

mesencephalic neurons = settings: 250 nmol/l
Protocol: Cortical neurons are involved in Alzheimer's disease and also in mesencephale neurons or dopaminergic neurons which are themselves involved in Parkinson's disease. (see also protocol described by Y. Mitsumotol, A. Watanabe, T. Miyauchi, F. Jimma, and T. Moriizumi in Stimulation of the regrowth of MPP+/damaged dopaminergic fibers by the treatment of mesencephalic cultures with basigin; J Neural Transm (2001) 108: 1127-1134).
The neuroprotective activity is assessed on MPP+ induced mesencephalic neuron loss with flufenazine concentration of 250 nmol/l
The cells are intoxicated by 2 micromol of MPP+ as neurotoxic during 24 h. The cell culture is then treated with 250 nm/l of flufenazine.
The percentage of mesencephalic neuronal survival obtained when intoxicated cells cultures are incubated with flufenazine is compared to cell cultures without flufenazine.

cortical neurons [1] = assay: Glutamic acid intoxication assay (LDH release); format: cell-based, Wistar rats
Protocol: Further studies were conducted on cortical neurons intoxicated with glutamic acid according to the protocol described by Nilsen J. and Brinton R D in Impact of progestins on oestrogen-induced neuroprotection:synergy by progesterone and 19-norprogesterone and antagonism by medoxyprogesterone acetate. Endocrinology 143:205-212 2002.
(§1) Two types of primary neuronal cell cultures i.e. cortical and spinal cord neurons are isolated from 15-17 days old foetuses of female Wistar rats and cultured in neurobasal/B27 medium until cell differentiation.
The neuroprotective activity is assessed on glu-induced cortical neurons loss. The process of death is initiated by 10 min treatment of neuron cell cultures with neurotoxic concentration of glutamic acid at 100 micromol/l.
The ability of flufenazine to reverse the death process is achieved by subsequent exposure of cells to flufenazine concentrations of 100 and 200 nmol/l. The quantity of LDH released is used to estimate the degree of intoxication and the decrease of quantity released is proportional at cellular resistance to Glu neurotoxicity.
the percentage of neuronal survival obtained when intoxicated cells cultures are incubated with flufenazine is compared to cell cultures without flufenazine.

[2] = test system: spinal cord motoneuron cell culture; assay: Neuronal survival and proliferation of spinal cord motoneuron cell culture; format: cell-based, Wistar rats; settings: 50, 100, 250 nmol/l; counted at 2-120 hours; compared to cultures with BDNF alone
Protocol: In vitro studies were first conducted on spinal cord motoneurons which are involved in peripheral neuropathy diseases as for example amyotrophic lateral sclerose (ALS) according to protocols described by Martinou J. C., Martinou I., Kato A. C. in Cholinergic differentiation factor (CDF/LIF) promotes survival of isolated rat embryonic motoneurons in vitro.
Cells cultures are incubated with different Fluphenazine N-Mustard dihydrochloride concentrations: 50, 100, 250 nmol/l.
Neuronal survival is then monitored at different time points; 2, 24, 48, 72, 96, 120 hours by counting the number of cells under microscope.
the percentage of neuronal survival obtained when cells cultures are incubated with flufenazine is compared to cell cultures incubated alone only with 50 microgram's of brain derived neurotrophic factor (BDNF).

cortical neurons [3] = assay: Neurotrophic assay, neurite outgrowth in cortical neuronal cultures; format: cell-based, Wistar rats; settings: 200 nmol/l; 24 h exposure
Description: The neurotrophic effect i.e. the neurite outgrowth with flufenazine was investigated on both cortical and spinal cord neuronal cultures according to the protocol described by Lucius R, Sievers J. in Postnatal retinal ganglion cells in vitro: protection against reactive oxygen species (ROS)-induced axonal degeneration by cocultured astrocytes Brain Res Dec. 16, 1996;743(1-2):56-62.
as §1
The ability of flufenazine to induce neurite outgrowth is investigated both in cortical and spinal cord neuronal cultures after 24 h exposure to flufenazine.
The neurite length as well as the percentage of cells with neurites are quantified by careful microscopic inspection. On cortex neurons type, the results are depicted in FIG. 4; the cortex neurotrophic effect of flufenazine (200 nmol/l) is expressed as an increase of 30% on neurites length compared to the neurites length in the control cortex neurons

## OCCN1CCN(CCCN2c3ccccc3Sc3ccc(C(F)(F)F)cc32)CC1 [flufenazine, 4-[3-[2-(trifluoromethyl)-10H-phenothiazin-10-yl]propyl]-1-pyperazine-ethanol]
SOD mice; 0.1 mg/kg daily oral
  survival of SOD mice compared to saline treated group: enhanced the survival
SOD mice; 1 mg/kg daily oral
  survival of SOD mice compared to saline treated group: enhanced the survival
SOD mice; 10 mg/kg daily oral
  survival of SOD mice compared to saline treated group: adverse effect and induced a leftward shift in the survival curve
Mesencephalic neurons
  neurite expansion versus control neurons: longer neurite expansion than in control neurons
  reversal of MPP+ induced neuronal loss: reverses MPP+ induced neuronal loss to the same extent as Riluzole
Mesencephalic neurons; after 2 micromol MPP+ during 24 h, observed after 48 hours
  increase of TH positives cells: 30%
Cortical neurons [1]; 200 nmol/l, after 10 min glutamic acid 100 micromol/l, compared to cultures without flufenazine
  increase of percentage of neuronal survival after glutamic acid intoxication: 10%
Cortical neurons [1]; no glutamic acid, FIG. 2 left part
  effect on cell survival in the absence of neurotoxic compound: no or very slight effect
[2]
  percentage of neuronal survival: increase regularly from 48 h until 120 h
Cortical neurons [3]
  increase on neurites length compared to control cortex neurons: 30%
